Test [1] has as its system T1, P. expansium laccase.
T1 construct: gene EC 1.10.3.2; native enzyme purified from culture filtrate (ABTS-supplemented medium; ammonium sulfate, DEAE-cellulose, Sephadex G-200); single SDS-PAGE band ~60 kDa; free (soluble) enzyme
The experiment in a line: spectrophotometric oxidation assay at […] nm, Lineweaver-Burk. The test is classed as biochemical, Penicillium expansum. The following applies: free enzyme; 0.2-0.8 mM substrate; 0.1 M sodium acetate pH 5.0, 40 °C.

In test [2] the test system is T1, P. expansium laccase. The experiment in a line: Lineweaver-Burk. Type of test: biochemical, Penicillium expansum. The following applies: free enzyme; 0.2-0.8 mM substrate; 0.1 M sodium acetate pH 5.0, 40 °C. An excerpt:
Lineweaver-Burk on P. expansium laccase

With `CCn1c(=NN=c2sc3cc(S(=O)(=O)O)ccc3n2CC)sc2cc(S(=O)(=O)O)ccc21` [ABTS], the Km with P. expansium laccase [1] was 4150 µM.
With `Oc1ccccc1O` [catechol], in the test with P. expansium laccase [2], the Km was found to be 1310 µM.

These data come from publication PMC8777717, “Thiolation of Myco-Synthesized Fe3O4-NPs: A Novel Promising Tool for Penicillium expansium Laccase Immobilization to Decolorize Textile Dyes and as an Application for Anticancer Agent” (Journal of Fungi, 2022).
